The values below come from patent US12503484B2, “Androstane derivatives with activity as pure or predominantly pure stimulators of SERCA2a for the treatment of heart failure” (Seismic Pharmaceuticals, priority 2019, dated 2025).

For orientation: IC50 means the concentration that inhibits the measured activity by half. The low end stands for higher potency, the high end for lower potency. For orientation: Kd means the equilibrium constant for the complex coming apart.

Assay [1] concerns the target dog renal Na^+/K^+ ATPase (Canis lupus familiaris (Dog) (Canis familiaris), UniProt P50997). The experiment in a line: biochemical. The following applies: IC50 inhibition of dog renal Na+/K+ ATPase, purified dog kidney enzyme.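 Also: enzyme preincubated with inhibitor 10 min at 37 °C, then K^+ and ^32P-ATP added for 15 min, released ^32P counted, activity relative to untreated control.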
The target in another assay is SERCA2a (Cavia porcellus, UniProt A0A286XD73). Description: SERCA2a ATPase activity in heart-derived SR microsomes from normal guinea-pig. It counts as biochemical. Here is the method: SERCA2a ATPase Activity in Heart-Derived SR Microsomes from Normal Quinea-Pig
Sequence of SERCA2a (A0A286XD73 1-997): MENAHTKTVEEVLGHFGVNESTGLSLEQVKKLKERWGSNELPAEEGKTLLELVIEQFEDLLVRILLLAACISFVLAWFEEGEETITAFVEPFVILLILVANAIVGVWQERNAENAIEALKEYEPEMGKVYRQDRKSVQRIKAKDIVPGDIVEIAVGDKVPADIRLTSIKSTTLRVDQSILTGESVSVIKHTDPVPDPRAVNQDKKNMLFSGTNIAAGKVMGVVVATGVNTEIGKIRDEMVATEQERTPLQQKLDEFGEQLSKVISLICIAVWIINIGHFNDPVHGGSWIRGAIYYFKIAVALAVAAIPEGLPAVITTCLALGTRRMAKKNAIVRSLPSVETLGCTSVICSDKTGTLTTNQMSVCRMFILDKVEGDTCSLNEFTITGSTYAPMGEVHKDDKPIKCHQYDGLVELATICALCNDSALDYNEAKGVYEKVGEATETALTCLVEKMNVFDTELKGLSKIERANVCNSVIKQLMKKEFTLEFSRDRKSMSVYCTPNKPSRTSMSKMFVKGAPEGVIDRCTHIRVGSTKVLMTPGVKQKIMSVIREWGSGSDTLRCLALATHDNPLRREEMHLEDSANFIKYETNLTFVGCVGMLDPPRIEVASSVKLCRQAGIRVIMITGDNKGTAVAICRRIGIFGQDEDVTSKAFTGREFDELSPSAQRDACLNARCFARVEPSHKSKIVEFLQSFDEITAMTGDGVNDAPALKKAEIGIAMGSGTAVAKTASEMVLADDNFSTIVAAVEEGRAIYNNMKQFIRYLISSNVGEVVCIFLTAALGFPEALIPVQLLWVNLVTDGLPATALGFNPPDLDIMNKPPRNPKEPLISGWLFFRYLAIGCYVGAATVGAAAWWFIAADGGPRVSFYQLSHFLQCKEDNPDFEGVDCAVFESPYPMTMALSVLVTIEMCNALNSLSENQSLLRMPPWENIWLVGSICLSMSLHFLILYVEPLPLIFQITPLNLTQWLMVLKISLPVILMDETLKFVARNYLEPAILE
SERCA2a activity was measured in vitro as ^32P-ATP hydrolysis at different Ca^2+ concentrations (100-4000 nM) in the absence and presence of the tested compounds, as described (Micheletti R. et al., Am J Card 2007, 99:24A-32A). Increasing concentrations of each compound (ranging from 1 to 200 nM) were pre-incubated with 2 μg of SERCA2a enriched microsomes for 5 min at 4° C. in 80 μl of a solution containing 100 mM KCl, 5 mM MgCl2, 1 μM A23187, 20 mM Tris, pH 7.5. […] SERCA2a-dependent activity was identified as the portion of total hydrolytic activity inhibited by 10 μM cyclopiazonic acid (Seidler N W et al., J Biol Chem. 1989, 264:17816-23).
Dose-response curves were fitted by using a sigmoidal equation and the activity at the maximal velocity (Vmax) and the Kd for Ca^2+ were calculated (Synergy Software KaleidaGraph 3.6). The effect of the compounds in normal guinea-pig preparations was expressed as % decrease of Kd Ca^2+ (implying an increase of affinity for Ca^2+) of a control sample run in the absence of compound (Table 2). […] Data are mean±SD, n=number of experiments, *at least p<0.05.
Text: Inhibition of Dog Renal Na^+/K^+ ATPase Activity
The compounds were thus tested for their inhibitory effect on the canine renal Na^+/K^+ ATPase enzyme.
Kidneys were excised from 1-3 year-old male beagle dogs (WuXi AppTec, Suzhou Co., Ltd. 1318 Wuzhong Ave., Wuzhong District Suzhou, 215104 P.R. China) under pentobarbital anesthesia (Import Authorization from Italian Health Ministry 0009171-09/04/2015-DGSAF-COD_UO-P, 2015). Kidneys were sliced and the outer medulla was dissected and suspended (1 g/10 ml) in a sucrose-histidine solution containing 250 mM sucrose, 30 mM histidine, and 5 mM EDTA, pH 7.2. The tissue was homogenized by using an Ultra Turrax homogenizer. The sample was centrifuged at 6,000 g for 15 min. Next, the supernatant was decanted and centrifuged at 48,000 g for 30 min. The pellet was suspended in the sucrose-histidine buffer and incubated for 20 min with a sodium-dodecyl-sulphate (SDS) solution dissolved in a gradient buffer containing 25 mM imidazole and 1 mM EDTA, pH 7.5. The sample was layered on the top of a sucrose discontinuous gradient (10, 15, and 29.4%) and centrifuged at 60,000 g for 115 min. The pellet was suspended in the gradient buffer.
Increasing concentrations of the standard ouabain, or tested compound, were incubated with 0.3 μg of purified dog kidney enzyme for 10 min at 37° C. in 120 μl final volume of a medium containing 140 mM NaCl, 3 mM MgCl2, 50 mM Hepes-Tris, 3 mM ATP, pH 7.5. Then, 10 μl of a solution containing 10 mM KCl and 20 nCi of ^32P-ATP (3-10 Ci/mmol, Perkin Elmer) were added. The reaction was allowed to continue for 15 min at 37° C. and then stopped by acidification with 20% v/v ice-cold perchloric acid. ^32P was separated by centrifugation with activated Charcoal (Norit A, Serva) and the radioactivity was counted. The inhibitory activity was expressed as percent of the control samples carried out in the absence of ouabain, or tested compound.

The mark [2] stands for this setting: read-out: Kd Ca2+ (nM) mean ± SD, compound 1 nM.
Where [3] appears, read: read-out: Kd Ca2+ (nM) mean ± SD, compound 10 nM.
The mark [4] stands for this setting: read-out: Kd Ca2+ (nM) mean ± SD, compound 100 nM.
Setting [5] is: read-out: Kd Ca2+ (nM) mean ± SD, compound 200 nM.
[6] abbreviates: compound 10 nM, read-out: Kd Ca2+ (nM) mean ± SD.
[7] abbreviates: compound 100 nM, read-out: Kd Ca2+ (nM) mean ± SD.
The mark [8] stands for this setting: compound 200 nM, read-out: Kd Ca2+ (nM) mean ± SD.

Molecules are shown by their SMILES. Like-named read-outs stand apart in the source and are kept apart here. Marks after values point to notes of the source that are not given here. A value given as a limit tells only on which side of the number the result lay.

With `C[C@]12CCC(=CCCCN)CC1[C@@H](O)C[C@@H]1[C@@H]2CC[C@]2(C)C(=O)CC[C@@H]12` (mixture of isomers) [CVie209, (EZ)-3-(4-aminobutyliden]-6alpha-hydroxyandrostane-17-one], in assay [1], the IC50 worked out at 0.8 µM.

In turn, `CCOC(=O)CCC[C@H]1CC[C@]2(C)C3CC[C@]4(C)C(=O)CCC4C3C[C@H](O)C2C1` (stereo partly drawn) [CVie217, 4-(6alpha-hydroxy-17-oxoandrostane-3-yl) ethylbutiroate] returned an IC50 in assay [1] of more than 100 µM. Further, the “% change in Ca2+ Kd vs control (negative = decrease)” value (“% change … (negative = decrease)” for short) at SERCA2a (compound 1 nM) is −20%; on SERCA2a (compound 10 nM), −24.7%*; on SERCA2a (compound 100 nM), −20%*; at SERCA2a (compound 200 nM) it was −29.4%*. For the same compound, the Kd on SERCA2a (setting [2]) was determined as 763 ± 103 nM; at SERCA2a (setting [3]), 719 ± 142 nM; on SERCA2a (setting [4]), 764 ± 120 nM; on SERCA2a (setting [5]), 674 ± 150 nM.

Compound `C[C@]12CC/C(=C/CCC(=O)O)CC1[C@@H](O)C[C@@H]1[C@@H]2CC[C@]2(C)C(=O)CC[C@@H]12` (stereo partly drawn) [CVie202, (Z)-4-(6alpha-hydroxy-17-oxoandrostane-3-yliden)butyric acid] returned a half-inhibitory concentration (IC50) in assay [1] of more than 100 µM. Moreover, the “% change … (negative = decrease)” value was −4% at SERCA2a (compound 10 nM), −7% at SERCA2a (compound 100 nM) and −6% at SERCA2a (compound 200 nM). For the same compound, the results for the Kd at SERCA2a (setting [6]), on SERCA2a (setting [7]) and at SERCA2a (setting [8]) were 448 ± 9.4 nM, 436 ± 24.9 nM and 437 ± 26.4 nM, respectively.

Consider `CCOC(=O)CCCCC[C@H]1CC[C@]2(C)C3CC[C@]4(C)C(=O)CCC4C3C[C@H](O)C2C1` (some centres unmarked) [CVie218], for which, in assay [1], the IC50 was more than 100 µM. The “% change … (negative = decrease)” value is recorded as −3% at SERCA2a (compound 1 nM), −7%* on SERCA2a (compound 10 nM), −19.1%* on SERCA2a (compound 100 nM) and −15%* on SERCA2a (compound 200 nM). Besides, the Kd on SERCA2a (setting [2]) was 705 ± 88.8 nM; at SERCA2a (setting [3]) it was 677 ± 13.8 nM; on SERCA2a (setting [4]), 587 ± 50.5 nM; on SERCA2a (setting [5]), 619 ± 48 nM.

In assay [1], `C[C@]12CC/C(=C/CCC(=O)O)CC1[C@H](O)C[C@@H]1[C@@H]2CC[C@]2(C)C(=O)CC[C@@H]12` (stereo partly drawn) [CVie204, (Z)-4-(6beta-hydroxy-17-oxoandrostane-3-yliden)butyric acid] gave an IC50 of more than 100 µM. In addition, the “% change … (negative = decrease)” value is reported as “+13%” on SERCA2a (compound 100 nM) and −3% on SERCA2a (compound 200 nM). The dissociation constant (Kd) on SERCA2a (setting [7]) came out at 493 ± 107 nM; at SERCA2a (setting [8]), 424 ± 82.7 nM.

`C[C@]12CC/C(=C\CCC(=O)O)CC1[C@@H](O)C[C@@H]1[C@@H]2CC[C@]2(C)C(=O)CC[C@@H]12` (stereo partly drawn) [CVie201, (E)-4-(6alpha-hydroxy-17-oxoandrostane-3-yliden)butyric acid] gave an IC50 in assay [1] of more than 100 µM. For the same compound, the “% change … (negative = decrease)” value at SERCA2a (compound 10 nM) was −14%*; at SERCA2a (compound 100 nM), −15%*. The dissociation constant (Kd) on SERCA2a (setting [6]) turned out to be 459 ± 57.1 nM; on SERCA2a (setting [7]) it was 454 ± 53.2 nM.

For `C[C@]12CC[C@H](CCCC(=O)O)CC1[C@H](O)C[C@@H]1[C@@H]2CC[C@]2(C)C(=O)CC[C@@H]12` (stereo partly drawn) [CVie215, 4-(6beta-hydroxy-17-oxoandrostane-3-yl) butyric acid], in assay [1], the IC50 was more than 100 µM. For the same compound, the Kd amounted to 530 ± 47.9 nM at SERCA2a (compound 1 nM, read-out: Kd Ca2+ (nM) mean ± SD); 459 ± 80.3 nM on SERCA2a (setting [6]); 437 ± 74.1 nM on SERCA2a (setting [7]).

`C[C@]12CC/C(=C\CC3CNC3)CC1[C@@H](CO)C(=O)C1C2CC[C@]2(C)C(=O)CCC12` (some centres unmarked) [CVie403] displayed an IC50 in assay [1] of 2.9 µM.

`C[C@]12CC/C(=C\CC3CCNCC3)CC1[C@@H](O)C[C@@H]1[C@@H]2CC[C@]2(C)C(=O)CC[C@@H]12` (stereo partly drawn) [CVie210, (E)-3-[2-(piperidin-4-yl)ethyliden]-6alpha-hydroxyandrostane-17-one] displayed a concentration for half-maximal inhibition (IC50) in assay [1] of 13.1 µM.

In assay [1], `C[C@]12CCC(=CCC3CCNCC3)CC1[C@@H](CO)C(=O)C1C2CC[C@]2(C)C(=O)CCC12` (mixture of isomers) [CVie405, (E,Z)-3-[2-(piperidin-4-yl)ethyliden]-6alpha-hydroxymethylandrostane-7,17-dione] yielded an IC50 of 7.9 µM.

Take `C[C@]12CC=C(CCC3CCNCC3)CC1[C@@H](O)C[C@@H]1[C@@H]2CC[C@]2(C)C(=O)CC[C@@H]12` (stereo partly drawn) [CVie208, 3-[2-(piperidin-4-yl)ethyl]-6alpha-hydroxyandrost-2-ene-17-one hydroiodide]: the IC50 in assay [1] was 10.4 µM. The “% change … (negative = decrease)” value was −19.1%* at SERCA2a (compound 100 nM) and −21.7% at SERCA2a (compound 200 nM). Also, the figures for the Kd on SERCA2a (setting [7]) and on SERCA2a (setting [8]) were 362 ± 72.2 nM and 350 ± 109 nM, respectively.

In assay [1], `C[C@]12CCC(=CCC3CCNC3)CC1[C@@H](CO)C(=O)C1C2CC[C@]2(C)C(=O)CCC12` (mixture of isomers) [CVie402, (E,Z)-3-[2-(pirrolidin-3yl)ethyliden]-6alpha-hydroxymethylandrostane-7,17-dione] gave an IC50 of 4.6 µM. This lies in the single-digit micromolar range.

As for `C[C@]12CC=C(CCCCN)CC1[C@@H](O)CC1C2CC[C@]2(C)C(=O)CCC12` (stereo partly drawn) [CVie207, (E)-3-(4-aminobutyl)-6alpha-hydroxyandrost-2-ene-17-one hydroiodide], in assay [1], the IC50 stood at 3.9 µM.

Turning to `C[C@]12CC[C@H](CCC3CCNC3)CC1[C@@H](CO)[C@@H](O)C1C2CC[C@]2(C)C(=O)CCC12` (stereo partly drawn) [CVie410, 3beta-[2-(pirrolidin-3yl)ethyl]6alpha-hydroxymethyl-7alpha-hydroxyandrostane-17-one], in assay [1], the IC50 amounted to 3.7 µM.

Take `C[C@]12CC[C@H](CCC3CNC3)CC1[C@@H](CO)[C@@H](O)C1C2CC[C@]2(C)C(=O)CCC12` (some centres unmarked) [CVie408]: the IC50 in assay [1] came to 3.3 µM. Further, the “% change … (negative = decrease)” value on SERCA2a (compound 100 nM) is given as −20.7%*; at SERCA2a (compound 200 nM), −21%*. In addition, the values for the Kd on SERCA2a (setting [4]) and at SERCA2a (setting [5]) were 356 ± 33.8 nM and 355 ± 66.9 nM, respectively.

Take `C[C@]12CC/C(=C/CC3CCNCC3)CC1[C@@H](O)C[C@@H]1[C@@H]2CC[C@]2(C)C(=O)CC[C@@H]12` (stereo partly drawn) [CVie211, (Z)-3-[2-(piperidin-4-yl)ethyliden]-6alpha-hydroxyandrostane-17-one]: the 50% inhibitory concentration (IC50) in assay [1] was 8.3 µM.

As to `C[C@]12CC[C@H](CCC3CCNCC3)CC1[C@@H](CO)C(=O)[C@@H]1[C@@H]2CC[C@]2(C)C(=O)CC[C@@H]12` (stereo partly drawn) [CVie411, 3beta-[2-(piperidin-4-yl)ethyl]-6alpha-hydroxymethylandrostane-7,17-dione], 1.9 µM corresponded to half-maximal inhibition in assay [1] (IC50). Further, the figures for the “% change … (negative = decrease)” value at SERCA2a (compound 100 nM) and at SERCA2a (compound 200 nM) were 0% and −4.9%, respectively. The Kd on SERCA2a (setting [7]) amounted to 428 ± 76.6 nM; at SERCA2a (setting [8]), 407 ± 111 nM.

`CNCCCCC=C1CC[C@]2(C)C3CC[C@]4(C)C(=O)CCC4C3[C@H](O)[C@H](CO)C2C1` (mixture of isomers) [CVie406, (E,Z)-3-(5-N-methylaminopentyliden)-6alpha-hydroxymethyl-7alpha-hydroxyandrostane-17-one] returned an IC50 in assay [1] of 1.9 µM.

As for `C[C@]12CC[C@H](CCC3CCNC3)CC1[C@@H](CO)C(=O)C1C2CC[C@]2(C)C(=O)CCC12` (stereo partly drawn) [CVie409, 3beta-[2-(pirrolidin-3yl)ethyl]-6alpha-hydroxymethylandrostane-7,17-dione], in assay [1], the concentration for half-maximal inhibition (IC50) was 3.4 µM.

Take `CNCCCC/C=C1\CC[C@]2(C)C3CC[C@]4(C)C(=O)CCC4C3C(=O)[C@H](CO)C2C1` (stereo partly drawn) [CVie401, (E,Z)-3-(5-N-methylaminopentyliden]-6alpha-hydroxymethylandrostane-7,17-dione]: the IC50 in assay [1] is 24 µM.
